PubChem BioAssay AID330 (DTP/NCI, 2004)
“And” between values parts separate entries of the source, which are not always exact repeats. Equal entries are not always repeated. Inconclusive results and toxic doses are left out. How the source made its calls: active means survival T/C of 150% or more; inactive means T/C below 125% in these data.

System: P388 leukemia ip, CD2F1 mice, survival T/C
Assay: NCI In Vivo Anticancer Drug Screen. Data for tumor model P388 Leukemia (intraperitoneal) in CD2F1 (CDF1) mice
Conditions: endpoint: median survival time, higher = longer survival
Summary of the method: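 Mice carrying the transplanted tumor received test compound or vehicle. Survival was recorded in each group, and the value is the treated-group measurement divided by that of the vehicle-treated control group.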

[1] = dose: 50.0 mg/kg/injection, schedule: Q01DX009 (ip), vehicle: Klucel (hydroxypropylcellulose) (HPC)
[2] = dose: 100.0 mg/kg/injection, schedule: Q01DX009 (ip), vehicle: Klucel (hydroxypropylcellulose) (HPC)
[3] = dose: 200.0 mg/kg/injection, schedule: Q01DX009 (ip), vehicle: Klucel (hydroxypropylcellulose) (HPC)

Measured: T/C

BrCc1cccnc1
inactive: dose: 12.5 mg/kg/injection, schedule: Q01DX005 (ip), vehicle: saline 103 % of control | dose: 25.0 mg/kg/injection, schedule: Q01DX005 (ip), vehicle: saline 103 % of control | dose: 50.0 mg/kg/injection, schedule: Q01DX005 (ip), vehicle: saline 103 % of control and 110 % of control

Cc1[nH]c(=O)nc(Nc2ccc(Cl)cc2)c1C(=O)N1CCN(CCO)CC1
inactive: dose: 60.0 mg/kg/injection, schedule: Q01DX005 (ip), vehicle: saline with Tween-80 93 % of control | dose: 120.0 mg/kg/injection, schedule: Q01DX005 (ip), vehicle: saline with Tween-80 90 % of control and 93 % of control | dose: 240.0 mg/kg/injection, schedule: Q01DX005 (ip), vehicle: saline with Tween-80 102 % of control and 93 % of control

CC(=O)OC1CCC2(C)C(=CCC3C2CCC2(C)C3CC3N(c4ccccc4Cl)C32C(C)=O)C1 (centres undefined)
inactive: dose: 25.0 mg/kg/injection, schedule: Q01DX001 (ip), vehicle: saline with Tween-80 93 % of control | dose: 50.0 mg/kg/injection, schedule: Q01DX001 (ip), vehicle: saline with Tween-80 95 % of control | dose: 100.0 mg/kg/injection, schedule: Q01DX001 (ip), vehicle: saline with Tween-80 99 % of control and 90 % of control | dose: 400.0 mg/kg/injection, schedule: Q01DX001 (ip), vehicle: saline with Tween-80 89 % of control

Cc1cc(N(C)C)nc2cc(N)ccc12
inactive: dose: 12.5 mg/kg/injection, schedule: Q01DX009 (ip), vehicle: saline with Tween-80 103 % of control | dose: 25.0 mg/kg/injection, schedule: Q01DX009 (ip), vehicle: saline with Tween-80 111 % of control | dose: 50.0 mg/kg/injection, schedule: Q01DX009 (ip), vehicle: saline with Tween-80 101 % of control and 89 % of control

O=S(=O)(c1ccc(NC(=S)NCc2ccncc2)cc1)N1CCCCC1
inactive: [1] 97 % of control | [2] 95 % of control | [3] 98 % of control

O=C(O)CN(CCN(CC(=O)O)CC(=O)O)CC(=O)O.[Cl][Pd][Cl]
inactive: dose: 15.0 mg/kg/injection, schedule: Q01DX005 (ip), vehicle: saline 97 % of control | dose: 30.0 mg/kg/injection, schedule: Q01DX005 (ip), vehicle: saline 93 % of control | dose: 60.0 mg/kg/injection, schedule: Q01DX005 (ip), vehicle: saline 91 % of control and 95 % of control

COc1ccc(S(=O)(=O)NCCSSCCNS(=O)(=O)c2ccc(OC)cc2)cc1
inactive: [1] 91 % of control | [2] 93 % of control | [3] 94 % of control

C=C(C)C(=O)OC1CC2=CC(CC3(C)OC3C3OC(=O)C(=C)C13)OC2=O (centres undefined)
inactive: dose: 2.25 mg/kg/injection, schedule: Q01DX009 (ip), vehicle: Klucel (hydroxypropylcellulose) (HPC) 100 % of control | dose: 2.3 mg/kg/injection, schedule: Q01DX009 (ip), vehicle: Klucel (hydroxypropylcellulose) (HPC) 103 % of control | dose: 4.5 mg/kg/injection, schedule: Q01DX009 (ip), vehicle: Klucel (hydroxypropylcellulose) (HPC) 100 % of control and 97 % of control | dose: 9.0 mg/kg/injection, schedule: Q01DX009 (ip), vehicle: Klucel (hydroxypropylcellulose) (HPC) 100 % of control and 111 % of control | dose: 18.0 mg/kg/injection, schedule: Q01DX009 (ip), vehicle: Klucel (hydroxypropylcellulose) (HPC) 114 % of control and 115 % of control

O=[N+]([O-])c1ccc2c(c1)nc(-c1ccccn1)n2CCc1ccccn1
inactive: dose: 100.0 mg/kg/injection, schedule: Q04DX003 (ip), vehicle: Klucel (hydroxypropylcellulose) (HPC) 107 % of control | dose: 200.0 mg/kg/injection, schedule: Q04DX003 (ip), vehicle: Klucel (hydroxypropylcellulose) (HPC) 101 % of control | dose: 400.0 mg/kg/injection, schedule: Q04DX003 (ip), vehicle: Klucel (hydroxypropylcellulose) (HPC) 107 % of control

COc1ccc(NN=O)cn1
inactive: dose: 1.56 mg/kg/injection, schedule: Q01DX009 (ip), vehicle: water 100 % of control | dose: 3.12 mg/kg/injection, schedule: Q01DX009 (ip), vehicle: water 100 % of control and 105 % of control | dose: 6.25 mg/kg/injection, schedule: Q01DX009 (ip), vehicle: water 99 % of control and 106 % of control | dose: 12.5 mg/kg/injection, schedule: Q01DX009 (ip), vehicle: water 106 % of control and 107 % of control and 98 % of control | dose: 25.0 mg/kg/injection, schedule: Q01DX009 (ip), vehicle: water 115 % of control and 122 % of control and 97 % of control | dose: 50.0 mg/kg/injection, schedule: Q01DX009 (ip), vehicle: water 114 % of control and 122 % of control | dose: 100.0 mg/kg/injection, schedule: Q01DX009 (ip), vehicle: water 122 % of control | dose: 200.0 mg/kg/injection, schedule: Q01DX009 (ip), vehicle: water 121 % of control

O=C1C=CC(=Nc2ccccc2)O1
inactive: dose: 2.5 mg/kg/injection, schedule: Q01DX009 (ip), vehicle: saline with Tween-80 100 % of control | dose: 5.0 mg/kg/injection, schedule: Q01DX009 (ip), vehicle: saline with Tween-80 100 % of control | dose: 10.0 mg/kg/injection, schedule: Q01DX009 (ip), vehicle: saline with Tween-80 95 % of control

CSc1c(C(=O)NC(C)C)cc(C(C)(C)C)cc1C(=O)NC(C)C
inactive: [1] 89 % of control | [2] 86 % of control | [3] 89 % of control
